Measurements: patent US20230158025A1 (UNIVERSITY OF UTAH RESEARCH FOUNDATION, priority 2020, published 2023)
pIC50: −log10 of the molar value. Where two headings read alike, the source gives them in different places.

What was measured:
[1] = rat microsomal stability (RLM)
[2] = target: recombinant human GALK1 (Homo sapiens, UniProt P51570); assay: hGALK1 biochemical activity assay (Kinase-Glo Plus, ATP depletion)
Protocol: In vitro hGALK1 activity assays were performed as previously described. Liu et al., Bioorg. Med. Chem. Lett. 25(3): 721-727 (2015), which is incorporated by reference herein for the specific teachings thereof. The biochemical assay was performed by coupling the activity of recombinant human or mouse GALK1 to the Kinase-Glo Plus luminescent ATP detection kit, using ATP depletion as a measure of GALK1 turnover. Specifically, three μL/well of ATP substrate solution (35 μM ATP) in assay buffer (20 mM HEPES pH 8.0, 5 mM MgCl2, 60 mM NaCl, 1 mM DTT, 0.01% BSA final concentration) was dispensed into 1536-well assay plates (Greiner, white solid-bottom medium-binding plates). Aliquots of compound (23 nL solubilized in DMSO) were transferred to the assay plates using a Kalypsys 1536-well pintool such that 11 concentrations with 1/3 dilutions ranging from 57.4 μM-0.97 nM are tested. One μL/well of GALK-galactose solution (5 nM GALK1, 100 μM galactose) in assay buffer was then added, yielding a final reaction volume of 4 μL/well. Following a 1-hour room temperature incubation, 4 μL of Kinase-Glo Plus detection reagent was added to provide an ATP-dependent luminescent readout (final assay volume: 8 μL/well).

[3] = aqueous kinetic solubility
[4] = target: recombinant mouse GALK1 (Mus musculus, UniProt Q9R0N0); assay: mGALK1 biochemical activity assay (Kinase-Glo Plus, ATP depletion)
Protocol: In vitro hGALK1 activity assays were performed as previously described. Liu et al., Bioorg. […] The biochemical assay was performed by coupling the activity of recombinant human or mouse GALK1 to the Kinase-Glo Plus luminescent ATP detection kit, using ATP depletion as a measure of GALK1 turnover. […] One μL/well of GALK-galactose solution (5 nM GALK1, 100 μM galactose) in assay buffer was then added, yielding a final reaction volume of 4 μL/well. Following a 1-hour room temperature incubation, 4 μL of Kinase-Glo Plus detection reagent was added to provide an ATP-dependent luminescent readout (final assay volume: 8 μL/well).

[5] = recombinant human GALK1, Kinase-Glo Plus ATP depletion, read-out: hGALK
[6] = recombinant mouse GALK1, Kinase-Glo Plus ATP depletion, read-out: mGALK
[7] = recombinant mouse GALK1, Kinase-Glo Plus ATP depletion
[8] = Tables 2-15, 35 μM ATP, 100 μM galactose, 1 h, bracketed figure after some values is undefined and not reported, read-out: mGALK IC50
[9] = Tables 2-15, 35 μM ATP, 100 μM galactose, 1 h, bracketed figure after some values (e.g. −1.2) is undefined and not reported, read-out: hGALK IC50
[10] = Tables 2-15, 35 μM ATP, 100 μM galactose, 1 h, bracketed figure after some values (e.g. −1.2) is undefined and not reported
[11] = recombinant human GALK1, Kinase-Glo Plus ATP depletion
[12] = Tables 2-15, 35 μM ATP, 100 μM galactose, 1 h, bracketed figure after some values is undefined and not reported
[13] = microsomal stability half-life, minutes
[14] = recombinant human GALK1, Kinase-Glo Plus ATP depletion, bracketed figure in the cell, e.g. (−1.2), is not defined in the text shown, read-out: hGALK
[15] = recombinant mouse GALK1, Kinase-Glo Plus ATP depletion, bracketed figure in the cell, e.g. (−1.2), is not defined in the text shown, read-out: mGALK

recombinant mouse GALK1, sequence (Q9R0N0 whole entry): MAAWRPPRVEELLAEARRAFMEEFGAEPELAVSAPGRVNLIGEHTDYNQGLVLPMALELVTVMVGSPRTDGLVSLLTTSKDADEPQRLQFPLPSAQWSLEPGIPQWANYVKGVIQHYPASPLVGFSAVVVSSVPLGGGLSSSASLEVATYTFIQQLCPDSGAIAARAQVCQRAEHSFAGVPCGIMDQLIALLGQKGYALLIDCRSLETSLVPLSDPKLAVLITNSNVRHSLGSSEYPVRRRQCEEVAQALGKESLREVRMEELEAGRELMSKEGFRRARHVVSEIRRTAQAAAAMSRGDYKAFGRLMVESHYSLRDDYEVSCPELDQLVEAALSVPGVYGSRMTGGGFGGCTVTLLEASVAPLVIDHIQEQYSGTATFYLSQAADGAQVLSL
recombinant human GALK1, sequence (P51570 whole entry): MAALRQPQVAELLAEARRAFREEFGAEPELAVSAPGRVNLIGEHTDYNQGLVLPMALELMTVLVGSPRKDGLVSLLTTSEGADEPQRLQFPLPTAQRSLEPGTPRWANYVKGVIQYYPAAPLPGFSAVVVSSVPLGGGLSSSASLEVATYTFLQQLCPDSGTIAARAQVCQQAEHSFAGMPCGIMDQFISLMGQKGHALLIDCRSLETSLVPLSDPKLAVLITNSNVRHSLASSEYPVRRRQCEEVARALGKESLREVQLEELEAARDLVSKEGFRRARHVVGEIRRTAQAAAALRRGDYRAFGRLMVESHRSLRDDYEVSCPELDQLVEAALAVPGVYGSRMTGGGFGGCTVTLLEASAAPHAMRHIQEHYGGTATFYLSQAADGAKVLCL

pIC50 [2, 5] | pIC50 [4, 6] | Metab. Stabil. (m) ([1]; microsomal stability half-life) | Sol. ([3]; aqueous kinetic solubility) [µg/mL] | mGALK (μM) [4, 7] | SMILES | other results
5.66 | 4.91 | – | – | – | COc1ccc(C(=O)O)cc1NC(=O)C1=C(C)NC(Nc2nc3ccc(F)cc3o2)=NC1c1ccccc1Cl (stereo not drawn) [Compound 27, 3-(4-(2-chlorophenyl)-2-((6-fluorobenzo[d]oxazol-2-yl)amino)-6-methyl-1,4-dihydropyrimidine-5-carboxamido)-4-methoxybenzoic acid] | Metab. Stabil. (m) ([1]; microsomal half-life): >30 m; Sol. [3]: 53.3 µg/mL
4.81 | 5.21 | – | – | – | CNCCNC(=O)C1=C(C)NC(Nc2nc3ccc(F)cc3o2)=NC1c1ccccc1Cl (stereo not drawn) [Compound 33, 4-(2-chlorophenyl)-2-((6-fluorobenzo[d]oxazol-2-yl)amino)-6-methyl-N-(2-(methylamino)ethyl)-1,4-dihydropyrimidine-5-carboxamido] | Metab. Stabil. (m) ([1]; microsomal half-life): >30 m; Sol. [3]: >67 µg/mL
4.91 | 4.71 | – | – | – | CC1=C(C(=O)Nc2ccc(CO)cn2)C(c2ccccc2Cl)N=C(Nc2nc3ccc(F)cc3o2)N1 (stereo not drawn) [Compound 42, 4-(2-chlorophenyl)-2-((6-fluorobenzo[d]oxazol-2-yl)amino)-N-(5-(hydroxymethyl)pyridin-2-yl)-6-methyl-1,4-dihydropyrimidine-5-carboxamide] | Metab. Stabil. (m) ([1]; microsomal half-life): >30 m; Sol. [3]: <1 µg/mL
5.31 | – | 30.79 | <1 | in- active | CC1=C(C(=O)Nc2ccc(Cl)cn2)C(c2ccccc2Cl)N=C(Nc2nc3ccccc3o2)N1 (stereo not drawn) [Compound 153, 2-(benzo[d]oxazol-2-ylamino)-4-(2-chlorophenyl)-N-(5-chloropyridin-2-yl)-6-methyl-1,4-dihydropyrimidine-5-carboxamide] | –
5.11 | 5.01 | >30 | <1 | – | CC1=C(C(=O)Nc2ccccc2F)C(c2ccccc2Cl)N=C(Nc2nc3ccccc3o2)N1 (stereo not drawn) [Compound 157, 2-(benzo[d]oxazol-2-ylamino)-N-(2-fluorophenyl)-4-(2-chlorophenyl)-6-methyl-1,4-dihydropyrimidine-5-carboxamide] | pIC50 [4, 8]: 5.01
5.16 | 4.91 | >30 | <1 | – | CC1=C(C(=O)Nc2cccc(F)c2)C(c2ccccc2Cl)N=C(Nc2nc3ccccc3o2)N1 (stereo not drawn) [Compound 158, 2-(benzo[d]oxazol-2-ylamino)-N-(3-fluorophenyl)-4-(2-chlorophenyl)-6-methyl-1,4-dihydropyrimidine-5-carboxamide] | pIC50 [4, 8]: 4.91
5.21 | 5.36 | 72.47 | 10.0 | – | CC1=C(C(=O)Nc2ccc(CN)cc2)C(c2ccccc2Cl)N=C(Nc2nc3ccccc3o2)N1 (stereo not drawn) [Compound 169, N-(4-(aminomethyl)phenyl)-2-(benzo[d]oxazol-2-ylamino)-4-(2-chlorophenyl)-6-methyl-1,4-dihydropyrimidine-5-carboxamide] | pIC50 [2, 9]: 5.21; pIC50 [4, 8]: 5.36
5.11 | 4.76 | >30 | <1 | – | CC1=C(C(=O)Nc2cccc(C(N)=O)c2)C(c2ccccc2Cl)N=C(Nc2nc3ccccc3o2)N1 (stereo not drawn) [Compound 177, 2-(benzo[d]oxazol-2-ylamino)-N-(3-carbamoylphenyl)-4-(2-chlorophenyl)-6-methyl-1,4-dihydropyrimidine-5-carboxamide] | pIC50 [2, 9]: 5.11; pIC50 [4, 8]: 4.76
4.71 | 4.66 | >30 | <1 | – | CC1=C(C(=O)Nc2ccc(C(=O)N3CCOCC3)cc2)C(c2ccccc2Cl)N=C(Nc2nc3ccccc3o2)N1 (stereo not drawn) [Compound 182, 2-(benzo[d]oxazol-2-ylamino)-4-(2-chlorophenyl)-6-methyl-N-(4-(morpholine-4-carbonyl)phenyl)-1,4-dihydropyrimidine-5-carboxamide] | pIC50 [2, 9]: 4.71; pIC50 [4, 8]: 4.66
5.36 | – | >30 | 60.3 | – | CC1=C(C(=O)Nc2cncc(C(=O)O)c2)C(c2ccccc2Cl)N=C(Nc2nc3ccccc3o2)N1 (stereo not drawn) [Compound 202, 5-(2-(benzo[d]oxazol-2-ylamino)-4-(2-chlorophenyl)-6-methyl-1,4-dihydropyrimidine-5-carboxamido)nicotinic acid] | pIC50 [2, 9]: 5.36
– | – | 4.223 | <1 | in- active | CC1=C(C(=O)NCc2ccccc2Cl)C(c2ccccc2Cl)N=C(Nc2nc3ccccc3o2)N1 (stereo not drawn) [Compound 216, 2-(benzo[d]oxazol-2-ylamino)-N-(2-chlorobenzyl)-4-(2-chlorophenyl)-6-methyl-1,4-dihydropyrimidine-5-carboxamide] | hGALK IC50 [2, 10]: inactive; hGALK (μM) [2, 11]: in- active; mGALK IC50 [4, 12]: inactive
5.11 | – | 11.34 | <1 | in- active | CC1=C(C(=O)NCc2ccc(F)cc2)C(c2ccccc2Cl)N=C(Nc2nc3ccccc3o2)N1 (stereo not drawn) [Compound 217] | pIC50 [2, 9]: 5.11; mGALK IC50 [4, 12]: inactive
– | – | 8.726 | 40.5 | in- active | CC1=C(C(=O)NCc2cn(C)cn2)[C@@H](c2ccccc2Cl)N=C(Nc2nc3ccccc3o2)N1 [Compound 236, (S)-2-(benzo[d]oxazol-2-ylamino)-4-(2-chlorophenyl)-6-methyl-N-((1-methyl-1H-imidazol-4-yl)methyl)-1,4-dihydropyrimidine-5-carboxamide] | hGALK IC50 [2, 10]: inactive; hGALK (μM) [2, 11]: in- active; mGALK IC50 [4, 12]: inactive
– | 4.86 | 19.30 | <1 | – | CCOC(=O)C1=C(C)NC(Nc2nc3ccccc3o2)=NC1c1ccccc1Cl (stereo not drawn) [Compound 239, ethyl 2-(benzo[d]oxazol-2-ylamino)-4-(2-chlorophenyl)-6-methyl-1,4-dihydropyrimidine-5-carboxylate] | hGALK (μM) [2, 11]: in- active
– | – | 57.5 | <1 | in- active | CCOC(=O)C1=C(C(C)C)NC(Nc2nc3ccccc3o2)=NC1c1ccccc1Cl (stereo not drawn) [Compound 240, ethyl 2-(benzo[d]oxazol-2-ylamino)-4-(2-chlorophenyl)-6-isopropyl-1,4-dihydropyrimidine-5-carboxylate] | hGALK (μM) [2, 11]: in- active
– | – | 10.46 | 2.65 | in- active | COC(=O)C1=C(C(F)(F)F)NC(Nc2nc3ccccc3o2)=NC1c1ccccc1Cl (stereo not drawn) [Compound 241, methyl 2-(benzo[d]oxazol-2-ylamino)-4-(2-chlorophenyl)-6-(trifluoromethyl)-1,4-dihydropyrimidine-5-carboxylate] | hGALK (μM) [2, 11]: in- active
– | – | – | >76 | – | CC1=C(C(=O)Nc2cc(C(=O)O)ccn2)C(c2ccccc2Cl)N=C(Nc2nc3ccccc3o2)N1C (stereo not drawn) [Compound 273, 2-(2-(benzo[d]oxazol-2-ylamino)-4-(2-chlorophenyl)-1,6-dimethyl-1,4-dihydropyrimidine-5-carboxamido)isonicotinic acid] | Metab. Stabil. (m) [1, 13]: >30 m; pIC50 [2, 14]: 4.66; pIC50 [4, 15]: 4.46

SMILES | pIC50 [2, 5] | pIC50 [4, 6] | Metab. Stabil. (m) ([1]; microsomal stability half-life) | Sol. ([3]; aqueous kinetic solubility) [µg/mL] | mGALK (μM) [4, 7] | other results
O=C1NCCC2=C1C(c1ccccc1Cl)N=C(Nc1nc3ccccc3o1)N2 (stereo not drawn) [Compound 245, 2-(benzo[d]oxazol-2-ylamino)-4-(2-chlorophenyl)-4,6,7,8-tetrahydropyrido[4,3-d]pyrimidin-5(1H)-one] | – | – | – | <1 | – | Metab. Stabil. (m) [1, 13]: 27.12 m; pIC50 [2, 14]: 4.76; pIC50 [4, 15]: 4.66
CC1=C(C(=O)Nc2cc(C(=O)O)ccn2)C(c2ccccc2Cl)N=C(Nc2nc3ccccc3o2)N1CC(=O)O (stereo not drawn) [Compound 272] | – | – | – | >83 | – | Metab. Stabil. (m) [1, 13]: >30 m; pIC50 ([2]; read-out: hGALK): 5.46; pIC50 [4, 15]: 4.86
